According to patent US20220281863A1, “COMPOUNDS, COMPOSITIONS AND METHODS OF TREATING DISORDERS” (Reverie Labs, Inc., priority 2019, published 2022):

Molecular target: T1, CDK9/CycTI (Homo sapiens, UniProt P50750)
T1 construct: purchased Carna biosciences 04-110
Assay: In vitro kinase assay (ADP-Glo Kinase Assay Kit), CDK9/CycTI
Format: biochemical
Details: 30 ng CDK9/CycTI, 30 μM CDKtide, 10 μM ATP, 2 hours at room temperature; 8 to 10-point dose response (Tier2); read-out: IC50 Score
Method: In vitro kinase assay was performed in white, 384-low volume plates in 5 μl reaction volume consisting of 30 ng CDK9/CycTI (Carna biosciences #04-110), 30 μM CDKtide (Signalchem #C06-58) and 10 μM ATP made in reaction buffer (40 mM Tris, pH 7.5; 20 mM MgCl2; 0.1 mg/ml BSA; 50 μM DTT) at 1 μM & 10 μM compound concentration for Tier1 assay and 8 to 10-point dose response curve for Tier2 assay. After 2 hours of incubation at room temperature, the amounts of […] in the kinase reaction were quantified using ADP-Glo™ Kinase Assay Kit (Promega #V9102). Briefly, 5 μl of ADP-Glo™ reagent was added to stop the kinase reaction and plate was incubated for 40 minutes at room temperature. Subsequently, 10 μl of Kinase Detection Reagent was added and luminescence was recorded after 30 minutes of incubation at room temperature.
The inhibition of kinase activity was determined relative to positive control (2% DMSO) and IC50 was calculated using GraphPad prism software (four parameter-variable slope equation).

T1 sequence (P50750 whole entry): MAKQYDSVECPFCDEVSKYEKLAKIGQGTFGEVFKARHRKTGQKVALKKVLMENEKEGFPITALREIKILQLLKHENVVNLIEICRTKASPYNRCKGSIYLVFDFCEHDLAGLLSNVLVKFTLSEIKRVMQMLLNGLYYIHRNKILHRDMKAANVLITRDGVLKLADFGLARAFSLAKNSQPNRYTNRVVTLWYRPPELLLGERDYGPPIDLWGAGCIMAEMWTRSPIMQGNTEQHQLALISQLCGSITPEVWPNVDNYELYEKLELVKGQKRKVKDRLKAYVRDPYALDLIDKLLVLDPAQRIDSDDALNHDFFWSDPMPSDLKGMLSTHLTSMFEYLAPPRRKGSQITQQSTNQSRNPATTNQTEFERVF
T1 sequence (O60563 whole entry partner): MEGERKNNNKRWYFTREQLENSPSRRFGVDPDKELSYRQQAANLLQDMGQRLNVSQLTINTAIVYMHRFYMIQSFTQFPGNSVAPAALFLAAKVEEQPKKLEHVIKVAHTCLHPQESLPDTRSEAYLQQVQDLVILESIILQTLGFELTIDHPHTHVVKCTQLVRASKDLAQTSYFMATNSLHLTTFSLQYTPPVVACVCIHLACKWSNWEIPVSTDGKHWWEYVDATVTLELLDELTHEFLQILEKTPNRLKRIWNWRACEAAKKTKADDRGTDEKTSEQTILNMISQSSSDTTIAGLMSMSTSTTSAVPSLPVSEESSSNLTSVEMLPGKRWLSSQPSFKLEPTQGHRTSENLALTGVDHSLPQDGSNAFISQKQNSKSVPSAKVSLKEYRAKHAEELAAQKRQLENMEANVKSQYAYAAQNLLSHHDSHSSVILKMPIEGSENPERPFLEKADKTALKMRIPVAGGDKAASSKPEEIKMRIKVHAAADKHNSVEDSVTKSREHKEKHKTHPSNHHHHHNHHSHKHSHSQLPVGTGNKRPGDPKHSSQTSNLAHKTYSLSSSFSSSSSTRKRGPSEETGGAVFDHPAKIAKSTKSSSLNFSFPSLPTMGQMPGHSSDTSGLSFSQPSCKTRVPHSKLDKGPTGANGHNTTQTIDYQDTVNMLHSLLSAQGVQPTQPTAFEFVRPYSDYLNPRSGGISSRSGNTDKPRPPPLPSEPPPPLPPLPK

| IC50 | Compound |
| --- | --- |
| 1 to 100 nM | CC(=O)N1CCC(C(=O)Nc2nc3ccc4cc(F)ccc4c3s2)C1 (racemic) [Compound 55, 1-acetyl-N-(7-fluoronaphtho[2,1-d]thiazol-2-yl)pyrrolidine-3-carboxamide] |
| 1 to 100 nM | O=C(Nc1nc2ccc3cc(F)ccc3c2s1)C1CCNC1 (racemic) [Compound 83, N-(7-fluoronaphtho[2,1-d]thiazol-2-yl)pyrrolidine-3-carboxamide] |
| 100 to 500 nM | CC(=O)N1CCNCC1C(=O)Nc1nc2ccc3cc(F)ccc3c2s1 (single isomer, unassigned) [Compound 18-a, 1-acetyl-N-(7-fluoronaphtho[2,1-d]thiazol-2-yl)piperazine-2-carboxamide] |
| 1000 to 20000 nM | CC(=O)N1CCNCC1C(=O)Nc1nc2ccc3cc(F)ccc3c2s1 (single isomer, unassigned) [Compound 18-b, 1-acetyl-N-(7-fluoronaphtho[2,1-d]thiazol-2-yl)piperazine-2-carboxamide] |
| 1000 to 20000 nM | CC(=O)N1CCN(C)CC1C(=O)Nc1nc2ccc3cc(F)ccc3c2s1 (single isomer, unassigned) [Compound 32, 1-acetyl-N-(7-fluoronaphtho[2,1-d]thiazol-2-yl)-4-methylpiperazine-2-carboxamide] |
| 1 to 100 nM | CC(=O)N1CCC(C(=O)Nc2nc3ccc4cc(F)ccc4c3s2)C1 (single isomer, unassigned) [Compound 36, 1-acetyl-N-(7-fluoronaphtho[2,1-d]thiazol-2-yl)pyrrolidine-3-carboxamide] |
| 1 to 100 nM | O=C(Nc1nc2ccc3cc(F)ccc3c2s1)C1CCNC1 (single isomer, unassigned) [Compound 37, N-(7-fluoronaphtho[2,1-d]thiazol-2-yl)pyrrolidine-3-carboxamide] |
| 1 to 100 nM | CN1CCC(C(=O)Nc2nc3ccc4cc(F)ccc4c3s2)C1 (single isomer, unassigned) [Compound 48, N-(7-fluoronaphtho[2,1-d]thiazol-2-yl)-1-methylpyrrolidine-3-carboxamide] |
| 1 to 100 nM | O=C(Nc1nc2ccc3cc(F)ccc3c2s1)C1CCNC1 (single isomer, unassigned) [Compound 51, N-(7-fluoronaphtho[2,1-d]thiazol-2-yl)pyrrolidine-3-carboxamide] |
| 1000 to 20000 nM | CC(=O)N1CCN(C)CC1C(=O)Nc1nc2ccc3cc(F)ccc3c2s1 (single isomer, unassigned) [Compound 66, 1-acetyl-N-(7-fluoronaphtho[2,1-d]thiazol-2-yl)-4-methylpiperazine-2-carboxamide] |
| 1000 to 20000 nM | CC(=O)N1CCCC[C@H]1C(=O)Nc1nc2ccc3cc(F)ccc3c2s1 (single isomer, unassigned) [Compound 67] |
| 1 to 100 nM | CN1CCC(C(=O)Nc2nc3ccc4cc(F)ccc4c3s2)C1 (single isomer, unassigned) [Compound 70, N-(7-fluoronaphtho[2,1-d]thiazol-2-yl)-1-methylpyrrolidine-3-carboxamide] |
| 100 to 500 nM | CC(=O)N1CCC(C(=O)Nc2nc3ccc4cc(F)ccc4c3s2)C1 (single isomer, unassigned) [Compound 82, 1-acetyl-N-(7-fluoronaphtho[2,1-d]thiazol-2-yl)pyrrolidine-3-carboxamide] |
| 1 to 100 nM | CN1CCC(C(=O)Nc2nc3ccc4cc(F)ccc4c3s2)C1 (single isomer, unassigned) [Compound 92, N-(7-fluoronaphtho[2,1-d]thiazol-2-yl)-1-methylpyrrolidine-3-carboxamide] |
| 1000 to 20000 nM | CC(C)(C)OC(=O)N1CCC[C@@H]1C(=O)Nc1nc2ccc3ccccc3c2s1 [Compound 1, tert-Butyl (R)-2-(naphtho[2,1-d]thiazol-2-ylcarbamoyl)pyrrolidine-1-carboxylate] |
| 1000 to 20000 nM | O=C(Nc1nc2ccc3ccccc3c2s1)[C@H]1CCCN1 [Compound 2, (R)—N-(naphtho[2,1-d]thiazol-2-yl)pyrrolidine-2-carboxamide] |
| 100 to 500 nM | CC(=O)N1CCC[C@@H]1C(=O)Nc1nc2ccc3ccccc3c2s1 [Compound 3, (R)-1-acetyl-N-(naphtho[2,1-d]thiazol-2-yl)pyrrolidine-2-carboxamide] |
| 1 to 100 nM | CC(=O)N1CCC[C@@H]1C(=O)Nc1nc2ccc3cc(F)ccc3c2s1 [Compound 4, (R)-1-acetyl-N-(7-fluoronaphtho[2,1-d]thiazol-2-yl)pyrrolidine-2-carboxamide] |
| 1000 to 20000 nM | CC(=O)N1CCC[C@H]1C(=O)Nc1nc2ccc3cc(F)ccc3c2s1 [Compound 5, (S)-1-acetyl-N-(7-fluoronaphtho[2,1-d]thiazol-2-yl)pyrrolidine-2-carboxamide] |
| 500 to 1000 nM | CC(=O)N1CCC[C@@H]1C(=O)Nc1nc2c(s1)-c1ccc(F)cc1CC2 [Compound 6, (R)-1-acetyl-N-(7-fluoro-4,5-dihydronaphtho[2,1-d]thiazol-2-yl)pyrrolidine-2-carboxamide] |
| 1 to 100 nM | O=C1CC[C@H](C(=O)Nc2nc3ccc4cc(F)ccc4c3s2)N1 [Compound 7, (R)—N-(7-fluoronaphtho[2,1-d]thiazol-2-yl)-5-oxopyrrolidine-2-carboxamide] |

| IC50 | Compound |
| --- | --- |
| 1 to 100 nM | O=C1CC[C@@H](C(=O)Nc2nc3ccc4cc(F)ccc4c3s2)N1 [Compound 8, (S)—N-(7-fluoronaphtho[2,1-d]thiazol-2-yl)-5-oxopyrrolidine-2-carboxamide] |
| 1 to 100 nM | CS(=O)(=O)N1CCC[C@@H]1C(=O)Nc1nc2ccc3cc(F)ccc3c2s1 [Compound 9, (R)—N-(7-fluoronaphtho[2,1-d]thiazol-2-yl)-1-(methylsulfonyl)pyrrolidine-2-carboxamide] |
| 100 to 500 nM | O=C(Nc1nc2ccc3cc(F)ccc3c2s1)[C@H]1CCCO1 [Compound 10, (R)—N-(7-fluoronaphtho[2,1-d]thiazol-2-yl)tetrahydrofuran-2-carboxamide] |
| 1 to 100 nM | O=C1CC[C@@H](C(=O)Nc2nc3ccc4ccccc4c3s2)N1 [Compound 11, (S)—N-(naphtho[2,1-d]thiazol-2-yl)-5-oxopyrrolidine-2-carboxamide] |
| 100 to 500 nM | CC(=O)Nc1nc2ccc3cc(F)ccc3c2s1 [Compound 12, N-(7-fluoronaphtho[2,1-d]thiazol-2-yl)acetamide] |
| 1 to 100 nM | CS(=O)(=O)N[C@@H]1CCC[C@H](C(=O)Nc2nc3ccc4cc(F)ccc4c3s2)C1 [Compound 13-a, (1S,3R)—N-(7-fluoronaphtho[2,1-d]thiazol-2-yl)-3-(methylsulfonamido)cyclohexane-1-carboxamide] |
| 100 to 500 nM | CS(=O)(=O)N[C@@H]1CCC[C@H](C(=O)Nc2nc3c(s2)-c2ccc(F)cc2CC3)C1 [Compound 13-b, (1S,3R)—N-(7-fluoro-4,5-dihydronaphtho[2,1-d]thiazol-2-yl)-3-(methylsulfonamido)cyclohexane-1-carboxamide] |
| 1 to 100 nM | CC(=O)N[C@@H]1CCC[C@H](C(=O)Nc2nc3ccc4cc(F)ccc4c3s2)C1 [Compound 14, (1S,3R)-3-acetamido-N-(7-fluoronaphtho[2,1-d]thiazol-2-yl)cyclohexane-1-carboxamide] |
| 1 to 100 nM | O=C(Nc1nc2ccc3cc(F)ccc3c2s1)[C@H]1CCC[C@@H](NS(=O)(=O)C2CC2)C1 [Compound 15-a, (1S,3R)-3-(cyclopropanesulfonamido)-N-(7-fluoronaphtho[2,1-d]thiazol-2-yl)cyclohexane-1-carboxamide] |
| 500 to 1000 nM | O=C(Nc1nc2c(s1)-c1ccc(F)cc1CC2)[C@H]1CCC[C@@H](NS(=O)(=O)C2CC2)C1 [Compound 15-b, (1S,3R)-3-(cyclopropanesulfonamido)-N-(7-fluoro-4,5-dihydronaphtho[2,1-d]thiazol-2-yl)cyclohexane-1-carboxamide] |
| 1 to 100 nM | CC(=O)N[C@H]1CCC[C@H](C(=O)Nc2nc3ccc4cc(F)ccc4c3s2)C1 [Compound 16, (1S,3S)-3-acetamido-N-(7-fluoronaphtho[2,1-d]thiazol-2-yl)cyclohexane-1-carboxamide] |
| 1 to 100 nM | CC(=O)N1CCC[C@@H]1C(=O)Nc1nc2ccc3cc(Cl)ccc3c2s1 [Compound 17, (R)-1-acetyl-N-(7-chloronaphtho[2,1-d]thiazol-2-yl)pyrrolidine-2-carboxamide] |
| 1 to 100 nM | CC(=O)N1CCOC[C@@H]1C(=O)Nc1nc2ccc3cc(F)ccc3c2s1 [Compound 19, (R)-4-acetyl-N-(7-fluoronaphtho[2,1-d]thiazol-2-yl)morpholine-3-carboxamide] |
| 1000 to 20000 nM | O=C(Nc1nc2ccc3cc(F)ccc3c2s1)[C@H]1CCCCN1 [Compound 20] |
| 1 to 100 nM | CC(=O)N1CCCC[C@@H]1C(=O)Nc1nc2ccc3cc(F)ccc3c2s1 [Compound 21] |
| 100 to 500 nM | CC(=O)N(C)[C@@H]1CCC[C@H](C(=O)Nc2nc3ccc4cc(F)ccc4c3s2)C1 [Compound 22] |
| 1 to 100 nM | CC(C)(C)OC(=O)N1CCCC[C@@H]1C(=O)Nc1nc2ccc3cc(F)ccc3c2s1 [Compound 23] |
| 1000 to 20000 nM | CN(C(=O)OC(C)(C)C)[C@@H]1CCC[C@H](C(=O)Nc2nc3ccc4cc(F)ccc4c3s2)C1 [Compound 24] |
| 500 to 1000 nM | CC(=O)N[C@@H]1CC[C@H](C(=O)Nc2nc3ccc4cc(F)ccc4c3s2)C1 [Compound 25] |
| 1 to 100 nM | N[C@@H]1CC[C@H](C(=O)Nc2nc3ccc4cc(F)ccc4c3s2)C1 [Compound 26] |
| 1 to 100 nM | CC(=O)N1CCCC[C@H]1C(=O)Nc1nc2ccc3cc(F)ccc3c2s1 [Compound 27, (S)-1-acetyl-N-(7-fluoronaphtho[2,1-d]thiazol-2-yl)piperidine-2-carboxamide] |
